EP0590024B1, “TOPICAL COMPOSITION ENHANCING HEALING OF HERPES LESIONS” (VIRO-TEX CORPORATION, priority 1991, dated 1993)
Structures can show the parent of a compound that is named as a salt.

Assays:
[1] = system: MS strain of HSV-2; assay: Primary genital HSV-2 infection of guinea pigs, topical treatment; assay type: in vivo; details: ACV as 5%
Protocol: The antiviral activity of several compounds in a primary genital HSV-2 infection of guinea pigs was tested. The experiments were placebo-controlled and uninfected animals were treated with each of the preparations to assess skin irritation. Groups treated with 5% Acyclovir were included as positive controls.
Virus and Viral Inoculation. The MS strain of HSV-2 was utilized to infect animals. Female Hartley strain guinea pigs, Charles River Breeding Laboratories, Kingston, NY, weighing 250 to 300 g were inoculated intravaginally with 1.4 x 10^5 plaque forming units of HSV-2 one hour after being swabbed for the removal of vaginal secretions.
Treatment of Guinea Pigs. Groups of ten infected guinea pigs were treated topically, 0.1 ml intravaginally and 0.1 ml on external genital skin, three times daily, approximately every eight hours, for seven days, beginning either 6 hr or 48 hr after HSV inoculation. Groups of three uninfected animals were used to assess toxicity of each preparation.
Simple Collection and Virus Assays. To determine the effect of treatment on vaginal virus replication, swabs of vaginal secretions were obtained on days 1, 3, 5, 7 and 10 after HSV-2 inoculation, placed in a tube containing 2.0 ml of media, vortexed and frozen at -70°C until titrated for HSV-2. When all samples were collected, they were thawed, diluted serially and HSV-2 titers determined using a microtiter CPE assay in rabbit kidney cells. Mean peak virus titers and areas under the virus titer-day curves were calculated and analyzed.
Scoring of External Genital Lesions. To determine the effect of therapy on the development and spread of external genital lesions, lesion severity was scored on a 0-5+ scale through the primary infection (21 days). Mean peak lesion scores and the area under the lesion score-day curves were calculated and analyzed.
Evaluation of Efficacy. The number of animals infected over the number inoculated, lesion score-day areas and virus titer-day areas under the curve, peak lesion scores and peak virus titers between untreated and placebo-treated or placebo-treated and drug-treated animals were compared using the Mann-Whitney U rank sum test. A p-value of 0.05 or less was considered significant.
The base formulation is as defined for the preferred embodiment of the composition for enhancing […] of viral lesions, but without SLS or anesthetic. Acyclovir (ACV) was used as a positive control (i.e., having antiviral activity). Placebo (PBS) treated animals were compared with an untreated control animal. 2A was compared with the untreated animals and placebo-treated animals. ACV groups were compared to the placebo-treated group. All others were compared to 2A.

[2] = system: HSV-2; assay: Inactivation studies: direct inactivation of HSV-2; set-up: species or system herpes simplex virus type-2; details: for concentrations tested at which the compound does not directly inactivate HSV-2: 30 minutes at room temperature, up to highest concentration tested
Protocol: (§1) A clinical isolate from a genital lesion of Herpes simplex virus, type (HSV-2), was used.
(§2) Stocks of viruses were grown by infecting MRC-5 cells at multiplicity of 0.01 plaque forming units (PFU) per cell and harvested in maintenance medium. Virus was harvested by three cycles of freezing at -70°C and thawing, followed by centrifugation at 1000 x g at 4°C for 15 minutes to remove cell debris. Resulting virus stocks were aliquoted and frozen at -70°C.
To determine if a test compound directly inactivates HSV-2, 0.5 ml of serial dilutions of the compound to be tested was mixed with 0.5 ml of stock HSV-2 (titer = […]) and incubated at room temperature for 30 minutes. After 30 minutes, the compound-virus mixture was diluted 10,000 fold in maintenance medium and virus recovery was determined by inoculating MRC-5 cells. The cells were graded for cytopathic effect after 24 hr, 48 hr, and 72 hr.

[3] = system: HSV-2; assay: Antiviral studies: inhibition of HSV-2 replication in MRC-5 cells (virus yield); assay type: cell-based, herpes simplex virus type-2
Protocol: as §1, §2
Antiviral activity, i.e., the ability of the compound to inhibit infection or replication of virus in cells, was measured by infecting confluent monolayers of MRC-5 cells in 12 x 100 mm culture tubes at a multiplicity of infection (MOI) of 3.0 plaque forming units (PFU) per cell of HSV-2 by removing the maintenance medium, washing the monolayers three times with phosphate buffered saline (PBS), and adding 0.1 ml of […] suspended in PBS. The multiplicity of infection was calculated by counting the number of viable cells in a duplicate tube and diluting the stock virus to produce a viral inoculum in a volume of 0.1 ml which contained three times the PFUs as the number of cells counted. After a 60 minute absorption period, the inoculum was removed and 4 mls of test compound at appropriate concentrations in maintenance medium or maintenance medium (control) was added. The tubes were incubated at 37°C for an additional 23 hours. At 24 hours post-infection, the medium was removed and the monolayers were washed twice with PBS and frozen and thawed 3 times in 1 ml of maintenance medium. Virus yields were determined by serial end-point titrations in 96-well tissue culture plates containing MRC-5 cells. All experiments were tested in triplicate. 50% end-points were calculated and titers were expressed in TCID 50 units. Antiviral effect was determined by subtracting the difference between the TCID 50s of the test compound and from the TCID 50s of HSV-2 virus stock titrated in the same experiment and calculated in percentages.

[4] = system: MRC-5 cells; details: for concentrations exhibiting significant cytotoxicity: 1440 min
[5] = system: Vero cells; assay: Cytotoxicity assay in Vero cells; assay type: cell-based, green monkey
Protocol: A continuous line of human embryo lung cells (MRC-5) were grown in Eagle's minimal essential medium (MEM) in Earle's salts supplemented with 2 mM L-glutamine, […] gentamicin, 0.25 mg/ml amphotericin B (Fungisone) ad 10% heat-inactivated fetal calf serum (growth medium). Cells were grown at 37°C in a humidified 5% CO2 atmosphere or in closed flasks. Maintenance medium was the same basic composition, except the concentration of fetal calf serum was 2%. Vero cells (continuous line of green monkey kidney cells) were grown in the same manner as MRC-5 cells.
Cytotoxicity assays were performed in MRC-5 cells and in Vero cells. The test compound was dissolved in maintenance medium at selected concentrations and inoculated onto MRC-5 or Vero cells in 96 well tissue culture plates. Each concentration was inoculated in triplicate. The plates were incubated at 37°C in 5% CO2 and graded for cytotoxicity at 24,48 and 72 hours after inoculation. The highest concentration of compound showing 50% cytotoxicity after 72 hours was designated the end point.

Compound: Nc1nc2c(ncn2COCCO)c(=O)[nH]1 [ACV, Acyclovir]
- virus titer-day area under the curve (AUC) ([1]; therapy given 6 hr after viral inoculation, vs placebo, p 0.05): significantly reduced
- mean peak virus titer ([1]; therapy given 6 hr after viral inoculation, vs placebo, p <0.01): significantly reduced
- lesion development ([1]; therapy initiated 6 hr following HSV-2 inoculation, P <0.05 or less): significantly decreased
- mean peak lesion score ([1]; therapy initiated 6 hr following inoculation, P <0.001): reduced

Compound: O=C(O)c1cccnc1 [Niacin]
- concentrations tested at which the compound does not directly inactivate HSV-2 [2]: up to 0.25%
- inhibition of the replication of HSV-2 / antiviral activity ([3]; concentration not given): does not inhibit
- concentrations non-toxic in MRC-5 cells ([4]; human): ≤ 0.25%

Compound: CCN(CC)CCOC(=O)c1ccc(N)cc1 [Procaine HCl, Procaine hydrochloride]
- concentrations tested at which the compound does not directly inactivate HSV-2 [2]: up to 4%
- concentrations unable to inhibit the replication of HSV-2 ([3]; MOI 3.0, 24 hours post-infection, up to stated concentration): up to 2%
- inhibition of the replication of HSV-2 / antiviral activity ([3]; concentration not given): does not
- concentrations showing significant toxicity ([5]; monkey): above 2.0%
- concentrations exhibiting significant cytotoxicity ([4]; human): above 0.25%

Compound: CCCCCCCCCCCCOS(=O)(=O)O [SLS, sodium lauryl (or dodecyl) sulfate]
- direct inactivation of HSV-2 ([2]; concentration of 0.00032%): No inactivation
- inhibition of viral replication ([3]; 0.0013%): does not inhibit
- inhibition of viral replication ([3]; 0.0025%): does not inhibit
- concentrations highly toxic to MRC-5 cells ([4]; MRC-5 cells, time not stated): above 0.0025%

Compound: CCCCNc1ccc(C(=O)OCCN(C)C)cc1 [Tetracaine HCl]
- concentrations tested at which the compound does not directly inactivate HSV-2 [2]: up to 2%
- inhibition of the replication of HSV-2 ([3]; 0.25%): partially inhibited
- inhibition of the replication of HSV-2 / antiviral activity ([3]; 0.5%, HCl): partially inhibited
- inhibition of the replication of HSV-2 / antiviral activity ([3]; 0.5%, listed as tetracaine HCl, HCl): some antiviral activity
- significant toxicity in Vero cells ([5]; Vero cells, result in words): not in Vero cells
- concentrations exhibiting significant cytotoxicity ([4]; human): above 0.03%
